Data from patent US8044068B2, “Aminopyrrolidine compound” (Taisho Pharmaceutical Co., Ltd, priority 2006, dated 2011).
Where a name gives a salt, the structure may show the parent alone.

Molecular target: T1, human MC4 receptor (Homo sapiens, UniProt P32245)
T1 construct: purchased Biolinks K.K; host or cells: HEK-293
Assay: MC4 receptor binding experiment ([125I]Nle4-D-Phe7-α-MSH displacement)
Conditions: human MC4 receptor expressing HEK-293 cell membrane; [125I]Nle4-D-Phe7-α-MSH 0.2 nM, 25° C.
Procedure: The MC4 receptor binding experiment was performed according to the method described in Pharmacology & Toxicology, 79, 161-165, 1996. The human MC4 receptor expressing-cell membrane obtained by expressing the human MC4 receptor in a HEK-293 cell was purchased from Biolinks K.K. The cell membrane was homogenized with 50 mM tris hydrochloride buffer (pH 7.4) containing 2 mM ethylenediaminetetraacetic acid, 10 mM calcium chloride, and 100 μM phenylmethylsulfonyl fluoride. The homogenate was centrifuged at 48,000×g at 4° C. for 20 min. The sediment obtained by centrifugation was rehomogenized with the same buffer, and the homogenate was centrifuged at 48,000×g at 4° C. for 20 min. This procedure was repeated twice. The sediment was suspended in 50 mM tris hydrochloride buffer (pH 7.4) containing 2 mM ethylenediaminetetraacetic acid, 10 mM calcium chloride, 100 μM phenylmethylsulfonyl fluoride, and 0.1% bovine serum albumin at a protein concentration of 100 μg/ml, and the suspension was used as a crude membrane preparation for the binding experiment. The crude membrane preparation (0.25 ml, 25 μg protein) was reacted with [^125I]Nle^4-D-Phe^7-α-MSH (final concentration, 0.2 nM) at 25° C. for 120 min. After completion of the reaction, the reaction solution was filtered by suction, using a cell harvester for the receptor binding experiment, onto a GF/C glass fiber filter paper immersed in 50 mM tris hydrochloride buffer (pH 7.4) containing 0.5% bovine serum for 2 h. Radioactivity on the filter paper was measured using a γ counter. The quantity of binding in the presence of 1 μM Nle^4-D-Phe^7-α-MSH was obtained as nonspecific binding, and specific binding was obtained by deducting the nonspecific binding from the total quantity, binding in the absence of 1 μM Nle^4-D-Phe^7-α-MSH. The test drug was dissolved in 100% DMSO solution and added to the membrane preparation at the same time as [^125I]Nle^4-D-Phe^7-α-MSH. The IC50 value was obtained from the inhibition curve in the range of 10^−10 to 10^−5 M. The binding test results of representative compounds are shown in Table 21 as examples.

T1 sequence (P32245 whole entry): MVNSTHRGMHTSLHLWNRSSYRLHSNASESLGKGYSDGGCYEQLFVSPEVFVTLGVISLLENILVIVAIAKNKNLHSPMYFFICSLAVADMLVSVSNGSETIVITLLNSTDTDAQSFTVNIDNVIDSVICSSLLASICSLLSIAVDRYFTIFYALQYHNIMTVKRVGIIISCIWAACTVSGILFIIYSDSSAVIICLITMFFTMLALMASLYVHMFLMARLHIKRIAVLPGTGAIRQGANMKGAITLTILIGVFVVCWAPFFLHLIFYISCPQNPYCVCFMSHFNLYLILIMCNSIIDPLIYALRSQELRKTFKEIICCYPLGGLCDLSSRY

`Cc1cc(N2CCS(=O)(=O)CC2)nc(N[C@H]2CCN(C(=O)Cc3ccc(OC(F)(F)F)cc3)C2)n1` [Compound 4-054] was tested. Which IC50 did it give?
The IC50 was 39 nM.

With `Cc1cc(N2CCCOCC2)nc(N[C@H]2CCN(C(=O)Cc3ccc(OC(F)(F)F)cc3)C2)n1` [Compound 4-058] as the compound, how does the IC50 read?
The IC50 was 28 nM.

`Cc1cc(N2CCS(=O)(=O)CC2)cc(N[C@H]2CCN(C(=O)Cc3ccc(OC(F)(F)F)cc3)C2)n1` [Compound 5-006, 1-((S)-3-(4-(1,1-dioxo-1λ^6-thiomorpholin-4-yl)-6-methylpyridin-2-ylamino)pyrrolidin-1-yl)-2-(4-trifluoromethoxyphenyl)ethanone] was tested. Which IC50 did it give?
Its IC50 is 9.3 nM.

For `CN(C)c1nc(N[C@H]2CCN(C(=O)Cc3ccc(OC(F)(F)F)cc3)C2)nc2ccsc12` [Compound 6-001, (S)-1-(3-(4-dimethylaminothieno[3,2-d]pyrimidin-2-ylamino)pyrrolidin-1-yl)-2-(4-trifluoromethoxyphenyl)ethanone 1 maleate], which IC50 is on record?
The IC50 was 71 nM.

`CS(=O)(=O)C1CCN(c2cc(N[C@H]3CCN(C(=O)Cc4ccc(OC(F)(F)F)cc4)C3)nc3ccsc23)CC1` [Compound 7-002, (S)-1-(3-(7-(4-methylsulfonylpiperidin-1-yl)thieno[3,2-b]pyridin-5-ylamino)pyrrolidin-1-yl)-2-(4-trifluoromethoxyphenyl)ethanone] was tested. Which IC50 did it give?
The IC50 was 94 nM.

Which IC50 does the source give for `CC(=O)N1CCN(c2nc(N[C@H]3CCN(C(=O)Cc4ccc(OC(F)(F)F)cc4)C3)nc3cscc23)CC1` [Compound 8-004] here?
Its IC50 is 11 nM.

`CS(=O)(=O)C1CCN(c2nc(N[C@H]3CCN(C(=O)Cc4ccc(OC(F)(F)F)cc4)C3)nc3cscc23)CC1` [Compound 8-005] was tested. Which IC50 did it give?
The IC50 was 12 nM.

With `O=C(Cc1ccc(OC(F)(F)F)cc1)N1C[C@@H](O)[C@H](Nc2nc(N3CCOCC3)c3cscc3n2)C1` [Compound 8-006] as the compound, how does the IC50 read?
Its IC50 is 10 nM.

Which IC50 does the source give for `CC(=O)N1CCN(c2nc(N[C@@H]3CN(C(=O)Cc4ccc(OC(F)(F)F)cc4)C[C@H]3O)nc3cscc23)CC1` [Compound 8-007] here?
Its IC50 is 10 nM.

Which IC50 does the source give for `CS(=O)(=O)N1CC[C@@H](Nc2nc(N[C@@H]3CN(C(=O)Cc4ccc(OC(F)(F)F)cc4)C[C@H]3O)nc3ccc(Cl)cc23)C1` [Compound 11-008] here?
The IC50 was 1.3 nM.

How did the IC50 turn out when `O=C(Cc1ccc(OC(F)(F)F)cc1)N1C[C@@H](O)[C@H](Nc2nc(N3CCOCC3)c3cc(Cl)ccc3n2)C1` [Compound 11-009] was run?
Its IC50 is 6.1 nM.

For `COc1ccc2nc(N[C@@H]3CN(C(=O)Cc4ccc(OC(F)(F)F)cc4)C[C@H]3O)nc(N[C@@H]3CCN(S(C)(=O)=O)C3)c2c1` [Compound 11-012], which IC50 is on record?
The IC50 was 0.3 nM.

How did the IC50 turn out when `COc1ccc2nc(N[C@@H]3CN(C(=O)Cc4ccc(OC(F)(F)F)cc4)C[C@H]3O)nc(N3CCC(S(C)(=O)=O)CC3)c2c1` [Compound 11-014] was run?
Its IC50 is 1.4 nM.

With `COc1ccc2nc(N[C@@H]3CN(C(=O)Cc4ccc(OC(F)(F)F)cc4)C[C@H]3O)nc(N3CCN(C(C)=O)CC3)c2c1` [Compound 11-015] as the compound, how does the IC50 read?
Its IC50 is 1 nM.

With `COc1ccc2nc(N[C@@H]3CN(C(=O)Cc4ccc(OC(F)(F)F)cc4)C[C@H]3O)cc(N3CCOCC3)c2c1` [Compound 12-001] as the compound, how does the IC50 read?
Its IC50 is 2.9 nM.

With `Cc1ccc2nc(N[C@@H]3CN(C(=O)Cc4ccc(OC(F)(F)F)cc4)C[C@H]3O)cc(C)c2c1` [Compound 12-004] as the compound, how does the IC50 read?
Its IC50 is 13 nM.

How did the IC50 turn out when `Cc1cc(N[C@@H]2CN(C(=O)Cc3ccc(OC(F)(F)F)cc3)C[C@H]2O)nc2ccc(O)cc12` [Compound 12-007] was run?
Its IC50 is 14 nM.

With `CO[C@@H]1CN(C(=O)Cc2ccc(OC(F)(F)F)cc2)C[C@H]1Nc1cc(C)c2cc(O)ccc2n1` [Compound 12-008, 1-((3R,4R)-3-(6-hydroxy-4-methylquinolin-2-ylamino)-4-methoxypyrrolidin-1-yl)-2-(4-trifluoromethoxyphenyl)ethanone] as the compound, how does the IC50 read?
Its IC50 is 12 nM.

How did the IC50 turn out when `COc1ccc2nc(N[C@@H]3CN(C(=O)Cc4ccc(OC(F)(F)F)cc4)C[C@H]3OC)cc(C)c2c1` [Compound 12-010] was run?
Its IC50 is 3 nM.

Which IC50 does the source give for `COc1ccc2nc(N[C@@H]3CN(C(=O)Cc4ccc(OC(F)(F)F)cc4)C[C@H]3O)cc(OC)c2c1` [Compound 12-017] here?
The IC50 was 3.3 nM.

`COc1ccc2nc(N[C@@H]3CN(C(=O)Cc4ccc(OC(F)(F)F)cc4)C[C@H]3OC)cc(OC)c2c1` [Compound 12-018] was tested. Which IC50 did it give?
The IC50 was 3.4 nM.
